From ChEMBL document CHEMBL2040774, “Potent antiviral HIV-1 protease inhibitor GRL-02031 adapts to the structures of drug resistant mutants with its P1'-pyrrolidinone ring” (J Med Chem, 2012) come the findings set out here.

Test [1] relates to Human immunodeficiency virus 1. The experiment in a line: Resistance index, ratio of Ki for HIV1 protease L76V mutant to Ki for HIV1 wild type protease.
A further test has as its target Protease (Human immunodeficiency virus 1, UniProt Q9YQ12). The experiment in a line: Inhibition of HIV1 wild type protease using Abz-Thr-Ile-Nle-p-nitro-Phe-Gln-Arg-NH2 as substrate after 5 mins by spectrophotometry.
Test [2] has as its system Human immunodeficiency virus 1. Kind of test: Resistance index, ratio of Ki for HIV1 protease I47V mutant to Ki for HIV1 wild type protease.
The target of test [3] is Human immunodeficiency virus type 1 protease (Human immunodeficiency virus 1, UniProt Q72874, I47V). The experiment in a line: Inhibition of HIV1 protease I47V mutant using Abz-Thr-Ile-Nle-p-nitro-Phe-Gln-Arg-NH2 as substrate after 5 mins by spectrophotometry.
The target in test [4] is Human immunodeficiency virus type 1 protease (Human immunodeficiency virus 1, UniProt Q72874, V82A). The experiment in a line: Inhibition of HIV1 protease V82A mutant using Abz-Thr-Ile-Nle-p-nitro-Phe-Gln-Arg-NH2 as substrate after 5 mins by spectrophotometry.
For test [5], the system named is Human immunodeficiency virus 1. The experiment in a line: Resistance index, ratio of Ki for HIV1 protease N88D mutant to Ki for HIV1 wild type protease.
The target of test [6] is Human immunodeficiency virus type 1 protease (Human immunodeficiency virus 1, UniProt Q72874, N88D). Kind of test: Inhibition of HIV1 protease N88D mutant using Abz-Thr-Ile-Nle-p-nitro-Phe-Gln-Arg-NH2 as substrate after 5 mins by spectrophotometry.
Test [7] addresses Human immunodeficiency virus type 1 protease (Human immunodeficiency virus 1, UniProt Q72874, L76V). Kind of test: Inhibition of HIV1 protease L76V mutant using Abz-Thr-Ile-Nle-p-nitro-Phe-Gln-Arg-NH2 as substrate after 5 mins by spectrophotometry.
Test [8] concerns Human immunodeficiency virus 1. Kind of test: Resistance index, ratio of Ki for HIV1 protease V82A mutant to Ki for HIV1 wild type protease.

pKi: −log10 of the molar value.

Sequence of Protease (Q9YQ12 whole entry): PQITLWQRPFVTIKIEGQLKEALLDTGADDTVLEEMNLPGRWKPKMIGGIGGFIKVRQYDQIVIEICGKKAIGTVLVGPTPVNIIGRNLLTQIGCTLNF

As a reminder, the pKi is −log10 of the Ki, conventionally taken in molar units. A lower pKi goes with a large Ki. On to `COc1ccc(S(=O)(=O)N(C[C@H]2CCC(=O)N2)C[C@@H](O)[C@H](Cc2ccccc2)NC(=O)O[C@@H]2C[C@@H]3CCO[C@@H]3C2)cc1`, for which the Ratio Ki in [1], in [2], in test [5] and in test [8] was < 2 each time. Besides, the pKi was 9.36 on Protease; 9.34 in test [3]; 9.19 in [4]; 9.04 in test [6]; 9.10 in [7].
